Tests used:
Format in all cases: in vivo
[1] = tested on: galium (catchweed bedstraw, Galium aparine); test: Test C postemergence, visual plant response rating
Outline: (§1)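 Visual injury on a 0 (no effect) to 100 (complete control) scale versus untreated controls, scored approximately 10 d after treatment under greenhouse conditions. Treatments used surfactant-containing non-phytotoxic solvent formulations, sprayed onto loam–sand soil preemergence or onto one- to two-leaf plants 2–10 cm tall postemergence.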

[2] = tested on: kochia (Bassia scoparia); test: Test C postemergence, visual plant response rating
Outline: as §1

[3] = tested on: blackgrass (Alopecurus myosuroides); test: Test C postemergence, visual plant response rating
Outline: as §1

[4] = tested on: wheat (Triticum aestivum); test: Test C postemergence, visual plant response rating
Outline: as §1

[5] = tested on: ragweed (common ragweed, Ambrosia artemisiifolia); test: Test C postemergence, visual plant response rating
Outline: as §1

[6] = tested on: Italian ryegrass (Lolium mutiflorum); test: Test C postemergence, visual plant response rating
Outline: as §1

[7] = tested on: corn (Zea mays); test: Test C postemergence, visual plant response rating
Outline: as §1

[8] = tested on: pigweed (Amaranthus retroflexus); test: Test C postemergence, visual plant response rating
Outline: as §1

[9] = tested on: barnyardgrass (Echinochloa crus-galli); test: Test C postemergence, visual plant response rating
Outline: as §1

[10] = tested on: foxtail, giant (giant foxtail, Setaria faberi); test: Test C postemergence, visual plant response rating
Outline: as §1

[11] = tested on: sedge umbrella (small-flower umbrella sedge, Cyperus difformis); test: Test D flooded paddy test, visual plant response rating; conditions: 250 g ai/ha, scale 0 to 100 (0 no effect, 100 complete control), 13 to 15 d
Outline: (§2)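 Visual injury scores, 0 (no effect) to 100 (complete control), were assigned after 13 to 15 d in the greenhouse by comparison with controls. Test compounds had been added to paddy water covering soil by 3 cm at the 2-leaf stage.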

[12] = tested on: rice (Oryza sativa); test: as above; conditions: 250 g ai/ha, scale 0 to 100 (0 no effect, 100 complete control), 13 to 15 d
Outline: as §2

[13] = tested on: barnyardgrass (Echinochloa crus-galli); test: as above; conditions: 250 g ai/ha, scale 0 to 100 (0 no effect, 100 complete control), 13 to 15 d
Outline: as §2

[14] = tested on: duck salad (Heteranthera limosa); test: as above; conditions: 250 g ai/ha, scale 0 to 100 (0 no effect, 100 complete control), 13 to 15 d
Outline: as §2

[15] = tested on: kochia (Bassia scoparia); test: Test C preemergence, visual plant response rating
Outline: as §1

[16] = tested on: ragweed (common ragweed, Ambrosia artemisiifolia); test: Test C preemergence, visual plant response rating
Outline: as §1

[17] = tested on: Italian ryegrass (Lolium mutiflorum); test: Test C preemergence, visual plant response rating
Outline: as §1

[18] = tested on: pigweed (Amaranthus retroflexus); test: Test C preemergence, visual plant response rating
Outline: as §1

[19] = tested on: barnyardgrass (Echinochloa crus-galli); test: Test C preemergence, visual plant response rating
Outline: as §1

[20] = tested on: foxtail, giant (giant foxtail, Setaria faberi); test: Test C preemergence, visual plant response rating
Outline: as §1

[21] = Test C, postemergence, 1000 g ai/ha
[22] = Test C, postemergence, 125 g ai/ha
[23] = Test C, 31 g ai/ha, 0 is no effect, 100 is complete control
[24] = Test C, 125 g ai/ha, 0 is no effect, 100 is complete control
[25] = Test C, postemergence, 31 g ai/ha

Compound	Plant response rating, Sedge, Umbrella (Flood) [11]	Plant response rating, Rice (Flood) [12]	Plant response rating, Barnyardgrass (Flood) [13]	Plant response rating, Ducksalad (Flood) [14]	Galium plant response rating (0 to 100 scale) [1, 22]	Kochia plant response rating (0 to 100 scale) [2, 22]	Blackgrass plant response rating (0 to 100 scale) [3, 22]	Wheat plant response rating (0 to 100 scale) ([4]; Postemergence, 31 g ai/ha)	Wheat plant response rating (0 to 100 scale) [4, 22]	Ragweed plant response rating (0 to 100 scale) ([5]; Postemergence, 31 g ai/ha)	Ragweed plant response rating (0 to 100 scale) [5, 22]	Ryegrass, Italian plant response rating (0 to 100 scale) ([6]; Postemergence, 31 g ai/ha)	Ryegrass, Italian plant response rating (0 to 100 scale) [6, 22]	Corn plant response rating (0 to 100 scale) [7, 22]	Pigweed plant response rating (0 to 100 scale) ([8]; Postemergence, 31 g ai/ha)	Pigweed plant response rating (0 to 100 scale) [8, 22]	Barnyardgrass plant response rating (0 to 100 scale) [9, 22]	Foxtail, Giant plant response rating (0 to 100 scale) [10, 22]	Kochia plant response rating (0 to 100 scale) [15, 23]	Ragweed plant response rating (0 to 100 scale) [16, 23]	also measured
CC(C)O/N=C(\c1c(O)cnn(C)c1=O)c1cccc2ccccc12 [Compound 222]	0	0	0	0	–	–	–	–	–	–	–	–	–	–	–	–	–	–	–	–	Galium plant response rating (0 to 100 scale) [1, 21]: 90; Kochia plant response rating (0 to 100 scale) [2, 21]: 0; Blackgrass plant response rating (0 to 100 scale) [3, 21]: 0; Wheat plant response rating (0 to 100 scale) [4, 21]: 0; Ragweed plant response rating (0 to 100 scale) [5, 21]: 50; Ryegrass, Italian plant response rating (0 to 100 scale) [6, 21]: 0; Corn plant response rating (0 to 100 scale) [7, 21]: 0; Pigweed plant response rating (0 to 100 scale) [8, 21]: 90; Barnyardgrass plant response rating (0 to 100 scale) [9, 21]: 10; Foxtail, Giant plant response rating (0 to 100 scale) [10, 21]: 20; Kochia plant response rating (0 to 100 scale) ([15]; 1000 g ai/ha): 0; Ragweed plant response rating (0 to 100 scale) ([16]; 1000 g ai/ha): 50; Ryegrass, Italian plant response rating (0 to 100 scale) ([17]; 1000 g ai/ha): 0; Pigweed plant response rating (0 to 100 scale) ([18]; 1000 g ai/ha): 100; Barnyardgrass plant response rating (0 to 100 scale) ([19]; 1000 g ai/ha): 0; Foxtail, Giant plant response rating (0 to 100 scale) ([20]; 1000 g ai/ha): 50
Cc1nn(C)c(=O)c(C(=NOC(C)C)c2cc(Cl)cc(Cl)c2F)c1O [Compound 167]	95	65	95	70	100	100	90	70	100	100	100	100	100	70	100	100	90	90	70	80	Galium plant response rating (0 to 100 scale) ([1]; Postemergence, 31 g ai/ha): 80; Kochia plant response rating (0 to 100 scale) ([2]; Postemergence, 31 g ai/ha): 80; Blackgrass plant response rating (0 to 100 scale) ([3]; Postemergence, 31 g ai/ha): 80; Corn plant response rating (0 to 100 scale) ([7]; Postemergence, 31 g ai/ha): 30; Barnyardgrass plant response rating (0 to 100 scale) ([9]; Postemergence, 31 g ai/ha): 80; Foxtail, Giant plant response rating (0 to 100 scale) ([10]; Postemergence, 31 g ai/ha): 90; Kochia plant response rating (0 to 100 scale) ([15]; 125 g ai/ha): 100; Ragweed plant response rating (0 to 100 scale) ([16]; 125 g ai/ha): 100; Ryegrass, Italian plant response rating (0 to 100 scale) ([17]; 125 g ai/ha): 100; Ryegrass, Italian plant response rating (0 to 100 scale) [17, 23]: 100; Pigweed plant response rating (0 to 100 scale) ([18]; 125 g ai/ha): 100; Pigweed plant response rating (0 to 100 scale) [18, 23]: 100; Barnyardgrass plant response rating (0 to 100 scale) ([19]; 125 g ai/ha): 100; Barnyardgrass plant response rating (0 to 100 scale) [19, 23]: 100; Foxtail, Giant plant response rating (0 to 100 scale) ([20]; 125 g ai/ha): 100; Foxtail, Giant plant response rating (0 to 100 scale) [20, 23]: 100
CO/N=C(/c1ccc(F)c(Cl)c1)c1c(O)c(C)nn(C)c1=O [Compound 218]	0	0	0	0	80	30	0	0	0	0	10	40	60	0	20	60	10	0	0	0	Galium plant response rating (0 to 100 scale) ([1]; Postemergence, 31 g ai/ha): 50; Kochia plant response rating (0 to 100 scale) ([2]; Postemergence, 31 g ai/ha): 10; Blackgrass plant response rating (0 to 100 scale) ([3]; Postemergence, 31 g ai/ha): 0; Corn plant response rating (0 to 100 scale) ([7]; Postemergence, 31 g ai/ha): 0; Barnyardgrass plant response rating (0 to 100 scale) ([9]; Postemergence, 31 g ai/ha): 0; Foxtail, Giant plant response rating (0 to 100 scale) ([10]; Postemergence, 31 g ai/ha): 0; Kochia plant response rating (0 to 100 scale) [15, 24]: 0; Ragweed plant response rating (0 to 100 scale) [16, 24]: 0; Ryegrass, Italian plant response rating (0 to 100 scale) [17, 23]: 0; Ryegrass, Italian plant response rating (0 to 100 scale) [17, 24]: 10; Pigweed plant response rating (0 to 100 scale) [18, 23]: 0; Pigweed plant response rating (0 to 100 scale) [18, 24]: 0; Barnyardgrass plant response rating (0 to 100 scale) [19, 23]: 0; Barnyardgrass plant response rating (0 to 100 scale) [19, 24]: 0; Foxtail, Giant plant response rating (0 to 100 scale) [20, 23]: 0; Foxtail, Giant plant response rating (0 to 100 scale) [20, 24]: 0
CON=C(c1ccc(F)c(Br)c1)c1c(O)c(C)nn(C)c1=O [Compound 176]	0	0	0	0	90	70	30	0	0	30	70	60	90	0	70	80	40	20	0	10	Galium plant response rating (0 to 100 scale) ([1]; Postemergence, 31 g ai/ha): 60; Kochia plant response rating (0 to 100 scale) ([2]; Postemergence, 31 g ai/ha): 20; Blackgrass plant response rating (0 to 100 scale) ([3]; Postemergence, 31 g ai/ha): 0; Corn plant response rating (0 to 100 scale) ([7]; Postemergence, 31 g ai/ha): 0; Barnyardgrass plant response rating (0 to 100 scale) ([9]; Postemergence, 31 g ai/ha): 30; Foxtail, Giant plant response rating (0 to 100 scale) ([10]; Postemergence, 31 g ai/ha): 10; Kochia plant response rating (0 to 100 scale) ([15]; 125 g ai/ha): 0; Ragweed plant response rating (0 to 100 scale) ([16]; 125 g ai/ha): 20; Ryegrass, Italian plant response rating (0 to 100 scale) ([17]; 125 g ai/ha): 20; Ryegrass, Italian plant response rating (0 to 100 scale) [17, 23]: 10; Pigweed plant response rating (0 to 100 scale) ([18]; 125 g ai/ha): 60; Pigweed plant response rating (0 to 100 scale) [18, 23]: 10; Barnyardgrass plant response rating (0 to 100 scale) ([19]; 125 g ai/ha): 0; Barnyardgrass plant response rating (0 to 100 scale) [19, 23]: 0; Foxtail, Giant plant response rating (0 to 100 scale) ([20]; 125 g ai/ha): 10; Foxtail, Giant plant response rating (0 to 100 scale) [20, 23]: 0
CO/N=C(/c1cc(Cl)cc(Br)c1)c1c(O)c(C)nn(C)c1=O [Compound 156]	30	0	0	30	100	100	30	0	50	90	100	100	100	20	70	80	70	90	40	100	Galium plant response rating (0 to 100 scale) [1, 25]: 100; Kochia plant response rating (0 to 100 scale) [2, 25]: 80; Blackgrass plant response rating (0 to 100 scale) [3, 25]: 30; Corn plant response rating (0 to 100 scale) [7, 25]: 20; Barnyardgrass plant response rating (0 to 100 scale) [9, 25]: 40; Foxtail, Giant plant response rating (0 to 100 scale) [10, 25]: 60; Kochia plant response rating (0 to 100 scale) ([15]; 125 g ai/ha): 100; Ragweed plant response rating (0 to 100 scale) ([16]; 125 g ai/ha): 100; Ryegrass, Italian plant response rating (0 to 100 scale) ([17]; 125 g ai/ha): 100; Ryegrass, Italian plant response rating (0 to 100 scale) [17, 23]: 100; Pigweed plant response rating (0 to 100 scale) ([18]; 125 g ai/ha): 80; Pigweed plant response rating (0 to 100 scale) [18, 23]: 40; Barnyardgrass plant response rating (0 to 100 scale) ([19]; 125 g ai/ha): 80; Barnyardgrass plant response rating (0 to 100 scale) [19, 23]: 0; Foxtail, Giant plant response rating (0 to 100 scale) ([20]; 125 g ai/ha): 100; Foxtail, Giant plant response rating (0 to 100 scale) [20, 23]: 50
